From patent US9073819B2, “Compositions, methods of use, and methods of treatment” (UNIVERSITY OF SOUTH FLORIDA, priority 2011, dated 2015)

Key:
[1] = molecular target: NMDA-B (NR1/2B) receptors (Homo sapiens, UniProt Q05586+Q13224); assay: Antagonist activity on NMDA receptors (current blockade and recovery)
[2] = molecular target: NMDA-A (NR1/2A) receptors (Homo sapiens, UniProt Q05586+Q12879); assay: as above
[3] = system: α6- and δ-containing GABAa receptors; conditions: within anesthetically relevant concentration; cited from earlier work
[4] = molecular target: NMDA-D (NR1/2D) receptors (Homo sapiens, UniProt O15399+Q05586); assay: Antagonist activity on NMDA receptors (current blockade and recovery)
GABAa receptors = assay: Agonist activity on GABAa receptors, subtype not separated in the text; assay type: cell-based; conditions: for potentiation of GABAA current / response from GABAa receptors, in words: relative to ketamine, various concentrations
Procedure: (§1) The GABAa subtypes α6β2δ and α1β2γ2 receptors are expressed at high levels exclusively within mature cerebellar granule neurons.
(§2) The ketamine analogues were tested for agonist activities at GABAa receptors both in the presence and absence of GABA (FIGS. 13-16). […] Oxime 2 was prepared both as a mono-salt and di-salt.

[5] = Lipophilicity relative to ketamine; assay type: physicochemical
α6β2δ GABAa receptors = molecular target: T1, α6β2δ GABAa receptors (Homo sapiens, UniProt O14764+P47870+Q16445); assay: Agonist activity of ketamine analogues on GABAa receptors (potentiation of GABA current, oocyte expression system); assay type: cell-based
T1 construct: expressed in transfected cells
Procedure: as §1, §2

NMDA receptors = assay: NMDA receptor blockade and recovery, subtypes not separated in the text; assay type: cell-based; conditions: compared with ketamine
NMDA-NR1/2C receptors = NMDA-NR1/2C receptors (Homo sapiens, UniProt Q05586+Q14957); assay: Antagonist activity on NMDA receptors (current blockade and recovery); assay type: cell-based; conditions: concentrations 0.1 to 200 μM
α1β2γ2 GABAa receptors = molecular target: T2, α1β2γ2 GABAa receptors (Homo sapiens, UniProt P14867+P18507+P47870); assay: Agonist activity of ketamine analogues on GABAa receptors (potentiation of GABA current, oocyte expression system); assay type: cell-based; conditions: for potentiation of GABAa current, in words: 20 μM
T2 construct: expressed in transfected cells
Procedure: as §1, §2

rats [6] = assay: Tail suspension model of depression in rats; assay type: in vivo; conditions: 5 mg/kg, tail suspension for 12 minutes
Procedure: Rats were dosed with ketamine oxime disalt and then tested in a model of depression. FIG. 24 illustrates an analysis of the antidepressant effects of ketamine and the oxime analogue at 5 mg/kg in rats undergoing tail suspension for 12 minutes. Note that immobility, giving up the struggle, is a sign of depression in this model. […] V is vehicle, A is ketamine, B is ketamine oxime analogue.

rats [7] = assay: Dose response study of motor coordination in rats (open field behavior); assay type: in vivo
Procedure: The effect of ketamine oxime disalt on motor coordination in rats was evaluated.

[8] = system: NMDA receptors with NR2-A and NR2-B subunits; conditions: cited from earlier work
mice = conditions: not significant when compared with ketamine; cited from earlier work
[9] = NMDA-B (NR1/2B), drug concentration 50 μM, current post drug treatment
[10] = NMDA-A (NR1/2A), drug concentration 50 μM, current post drug treatment
[11] = NMDA-D (NR1/2D), drug concentration 50 μM, current post drug treatment
[12] = NMDA-NR1/2B, affinity study, concentrations 0.1 to 200 μM
[13] = NMDA-NR1/2A, affinity study, concentrations 0.1 to 200 μM
[14] = NMDA-NR1/2D, affinity study, concentrations 0.1 to 200 μM

Sequence of NMDA-D (NR1/2D) receptors (O15399 28-1336, other chains not shown): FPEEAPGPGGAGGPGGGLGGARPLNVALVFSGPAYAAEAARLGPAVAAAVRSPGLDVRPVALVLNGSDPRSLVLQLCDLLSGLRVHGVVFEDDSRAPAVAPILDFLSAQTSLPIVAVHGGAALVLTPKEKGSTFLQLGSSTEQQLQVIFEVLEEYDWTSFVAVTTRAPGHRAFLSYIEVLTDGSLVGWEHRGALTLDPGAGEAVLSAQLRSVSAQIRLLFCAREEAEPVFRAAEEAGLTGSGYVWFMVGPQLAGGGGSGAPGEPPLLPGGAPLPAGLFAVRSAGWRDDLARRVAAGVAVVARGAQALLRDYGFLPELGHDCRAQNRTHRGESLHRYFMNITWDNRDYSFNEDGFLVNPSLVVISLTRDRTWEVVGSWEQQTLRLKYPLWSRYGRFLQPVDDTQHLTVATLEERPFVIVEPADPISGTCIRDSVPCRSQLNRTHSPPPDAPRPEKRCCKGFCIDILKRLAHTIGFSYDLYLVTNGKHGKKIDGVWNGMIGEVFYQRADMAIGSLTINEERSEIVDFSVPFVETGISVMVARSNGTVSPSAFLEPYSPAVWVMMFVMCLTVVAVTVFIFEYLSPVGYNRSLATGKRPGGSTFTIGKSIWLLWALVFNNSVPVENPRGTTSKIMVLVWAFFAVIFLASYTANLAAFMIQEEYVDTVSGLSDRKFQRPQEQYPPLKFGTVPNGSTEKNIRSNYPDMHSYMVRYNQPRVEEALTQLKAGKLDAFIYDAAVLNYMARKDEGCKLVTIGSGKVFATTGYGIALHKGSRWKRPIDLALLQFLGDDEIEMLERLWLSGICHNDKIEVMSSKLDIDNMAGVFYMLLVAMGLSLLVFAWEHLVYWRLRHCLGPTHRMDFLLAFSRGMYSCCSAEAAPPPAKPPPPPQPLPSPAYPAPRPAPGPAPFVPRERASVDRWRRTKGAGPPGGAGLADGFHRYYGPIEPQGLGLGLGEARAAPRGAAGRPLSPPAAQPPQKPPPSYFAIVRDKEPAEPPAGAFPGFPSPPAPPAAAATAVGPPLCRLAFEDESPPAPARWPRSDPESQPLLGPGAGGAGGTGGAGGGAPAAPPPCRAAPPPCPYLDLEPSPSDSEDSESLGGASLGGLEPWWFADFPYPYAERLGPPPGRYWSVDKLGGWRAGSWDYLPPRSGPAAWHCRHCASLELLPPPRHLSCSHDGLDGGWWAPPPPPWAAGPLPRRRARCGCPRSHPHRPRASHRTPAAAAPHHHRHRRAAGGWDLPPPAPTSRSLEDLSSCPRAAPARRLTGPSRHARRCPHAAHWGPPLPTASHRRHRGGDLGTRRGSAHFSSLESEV
Sequence of NMDA-B (NR1/2B) receptors (Q13224 27-1484, other chains not shown): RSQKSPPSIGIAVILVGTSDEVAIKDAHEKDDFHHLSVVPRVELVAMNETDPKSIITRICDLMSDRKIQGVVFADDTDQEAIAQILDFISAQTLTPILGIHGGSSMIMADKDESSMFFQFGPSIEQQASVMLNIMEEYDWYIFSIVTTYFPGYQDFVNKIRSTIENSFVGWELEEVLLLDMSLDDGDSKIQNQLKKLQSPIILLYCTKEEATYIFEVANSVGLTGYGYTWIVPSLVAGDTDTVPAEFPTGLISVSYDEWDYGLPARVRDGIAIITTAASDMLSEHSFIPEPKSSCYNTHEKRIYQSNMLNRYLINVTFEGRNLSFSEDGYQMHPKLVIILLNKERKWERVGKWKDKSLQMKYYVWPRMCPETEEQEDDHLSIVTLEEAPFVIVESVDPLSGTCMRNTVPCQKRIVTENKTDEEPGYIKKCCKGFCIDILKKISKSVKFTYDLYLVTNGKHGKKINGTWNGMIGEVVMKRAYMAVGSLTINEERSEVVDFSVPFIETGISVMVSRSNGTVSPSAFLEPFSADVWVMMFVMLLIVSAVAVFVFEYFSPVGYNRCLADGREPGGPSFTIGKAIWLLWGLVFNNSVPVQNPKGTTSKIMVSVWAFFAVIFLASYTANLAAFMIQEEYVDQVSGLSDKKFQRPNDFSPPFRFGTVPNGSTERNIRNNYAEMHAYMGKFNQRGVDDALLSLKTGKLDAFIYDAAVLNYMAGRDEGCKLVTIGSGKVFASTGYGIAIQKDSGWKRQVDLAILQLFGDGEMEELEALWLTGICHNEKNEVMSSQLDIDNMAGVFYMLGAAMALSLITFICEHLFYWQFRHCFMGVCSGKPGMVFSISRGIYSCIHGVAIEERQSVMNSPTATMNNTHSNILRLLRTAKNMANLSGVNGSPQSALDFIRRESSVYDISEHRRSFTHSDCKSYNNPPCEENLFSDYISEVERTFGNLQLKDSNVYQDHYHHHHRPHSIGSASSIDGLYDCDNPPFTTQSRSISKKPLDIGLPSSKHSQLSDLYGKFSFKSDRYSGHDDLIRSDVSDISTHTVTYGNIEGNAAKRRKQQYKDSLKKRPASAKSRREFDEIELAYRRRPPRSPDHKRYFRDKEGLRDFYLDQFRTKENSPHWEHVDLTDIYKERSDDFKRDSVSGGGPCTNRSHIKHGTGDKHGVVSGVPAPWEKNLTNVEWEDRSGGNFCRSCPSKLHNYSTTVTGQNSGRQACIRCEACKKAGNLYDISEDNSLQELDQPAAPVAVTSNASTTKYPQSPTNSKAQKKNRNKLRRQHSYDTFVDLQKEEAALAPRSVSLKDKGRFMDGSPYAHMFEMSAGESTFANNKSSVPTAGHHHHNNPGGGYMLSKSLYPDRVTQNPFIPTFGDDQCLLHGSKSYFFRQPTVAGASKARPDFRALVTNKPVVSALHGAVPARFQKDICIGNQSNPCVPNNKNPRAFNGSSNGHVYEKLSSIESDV
T1 sequence (Q16445 20-453): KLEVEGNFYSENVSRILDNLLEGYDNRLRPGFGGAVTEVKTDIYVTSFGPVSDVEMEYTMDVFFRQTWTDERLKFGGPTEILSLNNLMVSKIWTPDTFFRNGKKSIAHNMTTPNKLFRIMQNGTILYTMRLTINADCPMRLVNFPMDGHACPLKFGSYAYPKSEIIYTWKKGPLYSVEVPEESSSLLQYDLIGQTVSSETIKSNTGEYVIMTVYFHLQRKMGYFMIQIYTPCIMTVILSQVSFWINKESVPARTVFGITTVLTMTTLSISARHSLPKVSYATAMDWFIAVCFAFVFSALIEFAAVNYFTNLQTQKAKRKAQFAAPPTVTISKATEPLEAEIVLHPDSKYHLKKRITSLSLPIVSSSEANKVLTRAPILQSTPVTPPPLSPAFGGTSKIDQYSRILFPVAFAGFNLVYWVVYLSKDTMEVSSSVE
T1 sequence (P47870 25-512 limits assumed): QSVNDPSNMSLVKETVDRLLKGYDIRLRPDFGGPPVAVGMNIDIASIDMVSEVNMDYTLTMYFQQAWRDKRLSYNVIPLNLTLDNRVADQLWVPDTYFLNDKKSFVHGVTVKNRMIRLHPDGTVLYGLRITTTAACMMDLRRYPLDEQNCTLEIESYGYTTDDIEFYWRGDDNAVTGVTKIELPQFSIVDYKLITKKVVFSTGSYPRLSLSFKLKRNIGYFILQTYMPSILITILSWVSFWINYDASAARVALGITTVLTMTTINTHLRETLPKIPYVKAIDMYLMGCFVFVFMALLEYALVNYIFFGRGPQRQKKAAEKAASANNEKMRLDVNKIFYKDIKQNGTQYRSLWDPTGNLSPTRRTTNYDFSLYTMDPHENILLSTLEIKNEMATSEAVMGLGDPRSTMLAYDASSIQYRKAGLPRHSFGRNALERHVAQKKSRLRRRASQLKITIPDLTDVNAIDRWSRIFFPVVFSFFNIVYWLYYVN
T1 sequence (O14764 25-452): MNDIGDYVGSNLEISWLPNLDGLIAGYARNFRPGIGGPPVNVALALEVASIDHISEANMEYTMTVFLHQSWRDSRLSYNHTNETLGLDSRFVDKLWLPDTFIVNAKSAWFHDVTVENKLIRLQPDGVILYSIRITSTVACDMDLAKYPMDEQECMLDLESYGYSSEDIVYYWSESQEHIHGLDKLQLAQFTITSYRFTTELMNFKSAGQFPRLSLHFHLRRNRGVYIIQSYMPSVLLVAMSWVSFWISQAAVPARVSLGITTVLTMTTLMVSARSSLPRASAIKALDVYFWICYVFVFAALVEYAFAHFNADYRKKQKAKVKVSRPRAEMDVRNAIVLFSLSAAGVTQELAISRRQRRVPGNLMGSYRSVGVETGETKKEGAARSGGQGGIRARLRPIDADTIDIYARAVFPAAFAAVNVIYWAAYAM
T2 sequence (P14867 28-456): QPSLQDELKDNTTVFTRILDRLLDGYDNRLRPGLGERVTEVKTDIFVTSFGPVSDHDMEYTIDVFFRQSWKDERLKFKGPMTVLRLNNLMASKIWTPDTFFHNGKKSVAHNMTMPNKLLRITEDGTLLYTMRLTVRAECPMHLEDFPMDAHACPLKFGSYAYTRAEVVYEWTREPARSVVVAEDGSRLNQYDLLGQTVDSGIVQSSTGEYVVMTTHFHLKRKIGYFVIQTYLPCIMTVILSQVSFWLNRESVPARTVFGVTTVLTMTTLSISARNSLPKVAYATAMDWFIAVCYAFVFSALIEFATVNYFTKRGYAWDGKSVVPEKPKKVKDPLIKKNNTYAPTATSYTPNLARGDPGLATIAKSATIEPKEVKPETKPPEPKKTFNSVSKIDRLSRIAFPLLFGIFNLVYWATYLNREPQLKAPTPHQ
T2 sequence (P47870 25-512 limits assumed): as the sequence (P47870 25-512 limits assumed) above
T2 sequence (P18507 40-475): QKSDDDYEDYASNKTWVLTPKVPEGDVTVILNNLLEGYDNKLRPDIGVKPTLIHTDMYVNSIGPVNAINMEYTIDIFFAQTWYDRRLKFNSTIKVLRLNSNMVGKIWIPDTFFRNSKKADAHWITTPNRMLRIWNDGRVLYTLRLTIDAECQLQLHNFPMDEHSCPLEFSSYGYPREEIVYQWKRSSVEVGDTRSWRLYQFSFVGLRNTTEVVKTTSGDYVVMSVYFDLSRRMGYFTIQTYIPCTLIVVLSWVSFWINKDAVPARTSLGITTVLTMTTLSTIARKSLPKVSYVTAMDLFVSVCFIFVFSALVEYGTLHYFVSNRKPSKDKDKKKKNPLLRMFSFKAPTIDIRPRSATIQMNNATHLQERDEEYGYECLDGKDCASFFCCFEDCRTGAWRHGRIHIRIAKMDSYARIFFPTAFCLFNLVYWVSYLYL

## c1ccc(C2(N3CCCCC3)CCCCC2)cc1 [PCP, Phencyclidine, reference compound]
[1]
  inhibition at 50 µM: 96.8%
[1]; [9]
  % Recovery: 59.677%
[2]
  inhibition at 50 µM: 88.4%
[2]; [10]
  % Recovery: 93.953%
[3]
  potentiation of GABA / tonic chloride current: less active compared to ketamine
[4]
  inhibition at 50 µM: 87.5%
[4]; [11]
  % Recovery: 66.666%

## CNC1(c2ccccc2Cl)CCCC/C1=N\OCc1ccccc1 (stereo not drawn) [Benzoxime, 2-(2-Chloro-phenyl)-2-methylamino-cyclohexanone O-benzyl-oxime]
[1]
  inhibition at 50 µM: 41%
[1]; [9]
  % Recovery: 77.639%
GABAa receptors
  potentiation of GABAA current / response from GABAa receptors, in words: did not evoke considerable response
[5]
  lipophilicity compared to ketamine: increased lipophilicity
[4]
  inhibition at 50 µM: 49.3%
[4]; [11]
  % Recovery: 79.452%

## CNC1(c2ccccc2Cl)CCCC/C1=N\OC (stereo not drawn) [Methoxime, 2-(2-Chloro-phenyl)-2-methylamino-cyclohexanone O-methyl-oxime]
[1]
  inhibition at 50 µM: 75.6%
[1]; [9]
  % Recovery: 71.6417%
GABAa receptors
  potentiation of GABAA current / response from GABAa receptors, in words: did not evoke considerable response
[5]
  lipophilicity compared to ketamine: increased lipophilicity
[2]
  inhibition at 50 µM: 25.3%
[2]; [10]
  % Recovery: 98.453%
[4]
  inhibition at 50 µM: 57.5%
[4]; [11]
  % Recovery: 82.5%

## CNC1(c2ccccc2Cl)CCCC/C1=N\O (stereo not drawn) [Oxime (Monosalt), 2-(2-Chloro-phenyl)-2-methylamino-cyclohexanone oxime]
α6β2δ GABAa receptors; Conc. 10 (μM)
  IAverage = (IGABA + Drug/IGABA) 100: 128.2 n. amp
α6β2δ GABAa receptors; Conc. 20 (μM)
  IAverage = (IGABA + Drug/IGABA) 100: 193.746 n. amp
α6β2δ GABAa receptors; Conc. 50 (μM)
  IAverage = (IGABA + Drug/IGABA) 100: 312.04 n. amp

## CNC1(c2ccccc2Cl)CCCC/C1=N\O (stereo not drawn) [Oxime, 2-(2-Chloro-phenyl)-2-methylamino-cyclohexanone oxime]
[1]
  IC50: 1.07 µM
  inhibition at 50 µM: 83%
[1]; [9]
  % Recovery: 33.9622%
[1]; [12]
  % Recovery: 31%
GABAa receptors; GABAa receptors
  excitory post synaptic potential relative to ketamine: two times more excitory post synaptic potential than ketamine
GABAa receptors
  potentiation of GABAA current / response from GABAa receptors, in words: greatly potentiated
NMDA receptors
  lasting effect following wash of the drug: less than ketamine
[5]
  lipophilicity compared to ketamine: reduce lipophilicity
[2]
  IC50: 5.91 µM
  inhibition at 50 µM: 89.2%
[2]; [10]
  % Recovery: 86.1538%
[2]; NMDA-A receptors
  IC50 versus ketamine: two fold higher
[2]; [13]
  % Recovery: 74%
NMDA-NR1/2C receptors; affinity study
  % Recovery: 44%
NMDA-NR1/2C receptors
  IC50: 0.747 µM
[4]
  IC50: 1.07 µM
  inhibition at 50 µM: 86.7%
[4]; [11]
  % Recovery: 52.272%
[4]; [14]
  % Recovery: 68%

## CNC1(c2ccccc2Cl)CCCC/C1=N\NC(N)=O (stereo not drawn) [Semicarbazone, 2-(2-Chloro-phenyl)-2-methylamino-cyclohexanone O-semicarbazone]
[1]
  inhibition at 50 µM: 50.8%
[1]; [9]
  % Recovery: 98.484%
GABAa receptors
  potentiation of GABAA current / response from GABAa receptors, in words: less sensitive than ketamine
[2]
  inhibition at 50 µM: 33.6%
[4]
  inhibition at 50 µM: 33.3%

## CNC1(c2ccccc2Cl)CCCC/C1=N\O (stereo not drawn) [Oxime (Disalt), 2-(2-Chloro-phenyl)-2-methylamino-cyclohexanone oxime]
α1β2γ2 GABAa receptors
  potentiation of GABAa current, in words: greatly potentiated
α1β2γ2 GABAa receptors; 100 μM
  increase in potentiation relative to ketamine: nearly two fold increase
α1β2γ2 GABAa receptors; Conc. 20 (μM)
  IAverage = (IGABA + Drug/IGABA) 100: 122.678 n. amp
α1β2γ2 GABAa receptors; Conc. 50 (μM)
  IAverage = (IGABA + Drug/IGABA) 100: 153.41 n. amp
α1β2γ2 GABAa receptors; Conc. 100 (μM)
  IAverage = (IGABA + Drug/IGABA) 100: 214.5 n. amp
α6β2δ GABAa receptors; 20 μM
  potentiation of GABAa current, in words: greater potentiation
α6β2δ GABAa receptors; 50 μM
  increase in potentiation relative to ketamine: nearly two fold increase
α6β2δ GABAa receptors; Conc. 10 (μM)
  IAverage = (IGABA + Drug/IGABA) 100: 165.4 n. amp
α6β2δ GABAa receptors; Conc. 20 (μM)
  IAverage = (IGABA + Drug/IGABA) 100: 239 n. amp
α6β2δ GABAa receptors; Conc. 50 (μM)
  IAverage = (IGABA + Drug/IGABA) 100: 418 n. amp
Rats [6]
  immobility in tail suspension, overall versus saline: No significant differences
  immobility in tail suspension, slope analysis: decreased immobility
Rats [7]; 6 and 12 minute period following injection, dose response
  effect on motor coordination (open field behavior): CNS depressant effects
Rats [7]; at higher doses
  observed behaviour in vivo: loss of equilibrium, unsteady gait and immobility
  righting reflex (an indication of anesthesia): without loss of righting reflex

## CNC1(c2ccc(OC)cc2Cl)CCCCC1=O (stereo not drawn) [G]
[8]
  functional activity in comparison to ketamine: appreciable activity

## CNC1(c2ccccc2Cl)CCCCC1=O (stereo not drawn) [Ketamine, reference compound]
[1]
  IC50: 0.82 µM
  inhibition at 50 µM: 80.5%
[1]; [9]
  % Recovery: 34.564%
[1]; [12]
  % Recovery: 19%
α1β2γ2 GABAa receptors
  potentiation of GABAa current, in words: not able to potentiate any current
α1β2γ2 GABAa receptors; Conc. 20 (μM)
  IAverage = (IGABA + Drug/IGABA) 100: 0 n. amp
α1β2γ2 GABAa receptors; Conc. 50 (μM)
  IAverage = (IGABA + Drug/IGABA) 100: 105 n. amp
α1β2γ2 GABAa receptors; Conc. 100 (μM)
  IAverage = (IGABA + Drug/IGABA) 100: 119 n. amp
α6β2δ GABAa receptors; Conc. 10 (μM)
  IAverage = (IGABA + Drug/IGABA) 100: 116.2 n. amp
α6β2δ GABAa receptors; Conc. 20 (μM)
  IAverage = (IGABA + Drug/IGABA) 100: 157.1 n. amp
α6β2δ GABAa receptors; Conc. 50 (μM)
  IAverage = (IGABA + Drug/IGABA) 100: 218.3 n. amp
Rats [6]
  immobility in tail suspension, overall versus saline: No significant differences
[2]
  IC50: 2.32 µM
  inhibition at 50 µM: 57.6%
[2]; [10]
  % Recovery: 84.745%
[2]; [13]
  % Recovery: 28%
[3]
  potentiation of GABA / tonic chloride current: potentiated the GABA current
[4]
  IC50: 0.76 µM
  inhibition at 50 µM: 88.1%
[4]; [11]
  % Recovery: 26.19%
[4]; [14]
  % Recovery: 24%

## CNC1(c2ccccc2Cl)CCCCC1O (stereo not drawn) [Hydroxy, 2-(2-Chloro-phenyl)-2-methylamino-cyclohexanol]
α6β2δ GABAa receptors; Conc. 10 (μM)
  IAverage = (IGABA + Drug/IGABA) 100: 100 n. amp
α6β2δ GABAa receptors; Conc. 20 (μM)
  IAverage = (IGABA + Drug/IGABA) 100: 100 n. amp
α6β2δ GABAa receptors; Conc. 50 (μM)
  IAverage = (IGABA + Drug/IGABA) 100: 123.98 n. amp
α6β2δ GABAa receptors; Conc. 100 (μM)
  IAverage = (IGABA + Drug/IGABA) 100: 135.41 n. amp
GABAa receptors
  potentiation of GABAA current / response from GABAa receptors, in words: less sensitivity than ketamine

## CC1(N)CCc2ccccc2C1=O (stereo not drawn) [2-amino-2-methyl-1-tetralone]
mice
  locomotor activity: increased locomotor activity

## CC1(N)C(=O)CCc2ccccc21 (stereo not drawn) [1-amino-1-methyl-2-tetralone]
mice
  locomotor activity: decreased

## C[C@]12N[C@H](Cc3ccccc31)c1ccccc12 [Mk-801]
[3]
  potentiation of GABA / tonic chloride current: less active compared to ketamine
